Test results as given in PubChem BioAssay AID1963842 (Molecular Pharmacology Branch, DTP, NCI, 2024).

System: 677734-321-R-J1-PDC complex spheroid viability
Experiment: Anticancer human tumor 677734-321-R-J1-PDC patient-derived soft tissue sarcoma cell line growth inhibition [POLQ]
Conditions: for IC50: curve of first compound; for viability, T/C: stronger effect = lower value; active means viability on the fitted dose curve at most 10% of control; inactive means the rest
Outline: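 PDC + HUVEC + MSC complex spheroids; POLQ inhibitors ± partner drugs; top conc. at/near clinical Cmax, else 10 microM (SN-38 1 microM), half-log dilutions; 37 degrees C, 5% CO2.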

[1] = second compound 0.0316 µM, first compound 0.0316 µM
[2] = second compound 0.0316 µM, first compound 0.1 µM
[3] = second compound 0.0316 µM, first compound 0.316 µM
[4] = second compound 0.0316 µM, first compound 1 µM
[5] = second compound 0.0316 µM, first compound 3.16 µM
[6] = second compound 0.0316 µM, first compound 10 µM
[7] = second compound 0.1 µM, first compound 0.0316 µM
[8] = second compound 0.1 µM, first compound 0.1 µM
[9] = second compound 0.1 µM, first compound 0.316 µM
[10] = second compound 0.1 µM, first compound 1 µM
[11] = second compound 0.1 µM, first compound 3.16 µM
[12] = second compound 0.1 µM, first compound 10 µM
[13] = second compound 0.316 µM, first compound 0.0316 µM
[14] = second compound 0.316 µM, first compound 0.1 µM
[15] = second compound 0.316 µM, first compound 0.316 µM
[16] = second compound 0.316 µM, first compound 1 µM
[17] = second compound 0.316 µM, first compound 3.16 µM
[18] = second compound 0.316 µM, first compound 10 µM
[19] = second compound 1 µM, first compound 0.0316 µM
[20] = second compound 1 µM, first compound 0.1 µM
[21] = second compound 1 µM, first compound 0.316 µM
[22] = second compound 1 µM, first compound 1 µM
[23] = second compound 1 µM, first compound 3.16 µM
[24] = second compound 1 µM, first compound 10 µM
[25] = second compound 3.16 µM, first compound 0.0316 µM
[26] = second compound 3.16 µM, first compound 0.1 µM
[27] = second compound 3.16 µM, first compound 0.316 µM
[28] = second compound 3.16 µM, first compound 1 µM
[29] = second compound 3.16 µM, first compound 3.16 µM
[30] = second compound 3.16 µM, first compound 10 µM
[31] = second compound 10 µM, first compound 0.0316 µM
[32] = second compound 10 µM, first compound 0.1 µM
[33] = second compound 10 µM, first compound 0.316 µM
[34] = second compound 10 µM, first compound 1 µM
[35] = second compound 10 µM, first compound 3.16 µM
[36] = second compound 10 µM, first compound 10 µM
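Further: spheroids exposed to compounds for one week.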
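Wherever viability, T/C is given: 100% = vehicle DMSO treated spheroids.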

CC1COCCN1c1cc(C2(O)CC3CCC(C2)O3)c2cnn(-c3ccn[nH]3)c2n1 (stereo not drawn) + Cc1cccc(N(C)C(=O)C2C(O)CCN2c2nc(C)cc(C(F)(F)F)c2C#N)c1
96.2 nM: IC50 (second compound 0.0316 µM)
95.7 nM: IC50 (second compound 0.316 µM)
99.1 nM: IC50 (second compound 1 µM)
inactive: viability, T/C [1] 76.5% | viability, T/C [2] 49% | viability, T/C [3] 26.5% | viability, T/C [4] 19% | viability, T/C [5] 17.3% | viability, T/C [6] 17.8% | viability, T/C [7] 87.8% | viability, T/C [8] 54.8% | viability, T/C [9] 27.2% | viability, T/C [10] 22.5% | viability, T/C [11] 22.2% | viability, T/C [12] 16.9% | viability, T/C [13] 83.6% | viability, T/C [14] 48.9% | viability, T/C [15] 28.1% | viability, T/C [16] 21% | viability, T/C [17] 18.3% | viability, T/C [18] 15.2% | viability, T/C [19] 94.2% | viability, T/C [20] 49.6% | viability, T/C [21] 26.1% | viability, T/C [22] 18% | viability, T/C [23] 17.4% | viability, T/C [24] 16.4% | viability, T/C [25] 85.5% | viability, T/C [26] 43.4% | viability, T/C [27] 25.1% | viability, T/C [28] 18.4% | viability, T/C [29] 28.6% | viability, T/C [30] 14% | viability, T/C [31] 85.6% | viability, T/C [32] 41.3% | viability, T/C [33] 24.2% | viability, T/C [34] 21.8% | viability, T/C [35] 16.9% | viability, T/C [36] 15.7%
83.2 nM: IC50 (second compound 3.16 µM)
80.3 nM: IC50 (second compound 10 µM)
122 nM: IC50 (second compound 0.1 µM)

O=C(Nc1ccc(O)c(NS(=O)(=O)c2ccc(F)cc2)c1)c1ccc(-c2ccccc2)cc1 + Cc1cccc(N(C)C(=O)C2C(O)CCN2c2nc(C)cc(C(F)(F)F)c2C#N)c1
5420 nM: IC50 (second compound 0.1 µM)
3710 nM: IC50 (second compound 0.316 µM)
1470 nM: IC50 (second compound 10 µM)
inactive: viability, T/C [1] 89.4% | viability, T/C [2] 92.9% | viability, T/C [3] 97.1% | viability, T/C [4] 96.7% | viability, T/C [5] 60.3% | viability, T/C [6] 16% | viability, T/C [7] 98.5% | viability, T/C [8] 95.8% | viability, T/C [9] 101% | viability, T/C [10] 92.7% | viability, T/C [11] 75.6% | viability, T/C [12] 20.9% | viability, T/C [13] 101% | viability, T/C [14] 97.1% | viability, T/C [15] 99.3% | viability, T/C [16] 70.6% | viability, T/C [17] 58% | viability, T/C [18] 19.3% | viability, T/C [19] 103% | viability, T/C [20] 90.2% | viability, T/C [21] 101% | viability, T/C [22] 101% | viability, T/C [23] 52.5% | viability, T/C [24] 15.6% | viability, T/C [25] 84.3% | viability, T/C [26] 110% | viability, T/C [27] 87.6% | viability, T/C [28] 75.7% | viability, T/C [29] 35.5% | viability, T/C [30] 17.9% | viability, T/C [31] 76.8% | viability, T/C [32] 95.1% | viability, T/C [33] 74.6% | viability, T/C [34] 59.1% | viability, T/C [35] 31.5% | viability, T/C [36] 11.4%
2080 nM: IC50 (second compound 3.16 µM)
3420 nM: IC50 (second compound 1 µM)
4140 nM: IC50 (second compound 0.0316 µM)

CC(=O)O[C@H]1C(=O)[C@@]2(C)[C@H]([C@H](OC(=O)c3ccccc3)[C@]3(O)C[C@H](OC(=O)[C@H](O)[C@@H](NC(=O)c4ccccc4)c4ccccc4)C(C)=C1C3(C)C)[C@]1(OC(C)=O)CO[C@@H]1C[C@@H]2O + Nc1ccc(C#CCN(C(=O)Cc2ncc(C(F)(F)F)cc2C(F)(F)F)c2ccc(F)cc2)nn1
inactive: viability, T/C (second compound 0.0316 µM, first compound 0.00949 µM) 21.6% | viability, T/C (second compound 0.0316 µM, first compound 0.03 µM) 15% | viability, T/C (second compound 0.0316 µM, first compound 0.0949 µM) 13.9% | viability, T/C (second compound 0.0316 µM, first compound 0.3 µM) 14.6% | viability, T/C (second compound 0.0316 µM, first compound 0.949 µM) 14.9% | viability, T/C (second compound 0.0316 µM, first compound 3 µM) 17.6% | viability, T/C (second compound 0.1 µM, first compound 0.00949 µM) 32.9% | viability, T/C (second compound 0.1 µM, first compound 0.03 µM) 18.3% | viability, T/C (second compound 0.1 µM, first compound 0.0949 µM) 14.2% | viability, T/C (second compound 0.1 µM, first compound 0.3 µM) 13.9% | viability, T/C (second compound 0.1 µM, first compound 0.949 µM) 14.3% | viability, T/C (second compound 0.1 µM, first compound 3 µM) 16.1% | viability, T/C (second compound 0.316 µM, first compound 0.00949 µM) 21.7% | viability, T/C (second compound 0.316 µM, first compound 0.03 µM) 17.9% | viability, T/C (second compound 0.316 µM, first compound 0.0949 µM) 14.7% | viability, T/C (second compound 0.316 µM, first compound 0.3 µM) 11.6% | viability, T/C (second compound 0.316 µM, first compound 0.949 µM) 13.8% | viability, T/C (second compound 0.316 µM, first compound 3 µM) 15.7% | viability, T/C (second compound 1 µM, first compound 0.00949 µM) 32.7% | viability, T/C (second compound 1 µM, first compound 0.03 µM) 17.1% | viability, T/C (second compound 1 µM, first compound 0.0949 µM) 16.6% | viability, T/C (second compound 1 µM, first compound 0.3 µM) 15% | viability, T/C (second compound 1 µM, first compound 0.949 µM) 13.3% | viability, T/C (second compound 1 µM, first compound 3 µM) 12.2% | viability, T/C (second compound 3.16 µM, first compound 0.00949 µM) 34.1% | viability, T/C (second compound 3.16 µM, first compound 0.03 µM) 16.9% | viability, T/C (second compound 3.16 µM, first compound 0.0949 µM) 11.8% | viability, T/C (second compound 3.16 µM, first compound 0.3 µM) 13.4% | viability, T/C (second compound 3.16 µM, first compound 0.949 µM) 13.5% | viability, T/C (second compound 3.16 µM, first compound 3 µM) 16.4% | viability, T/C (second compound 10 µM, first compound 0.00949 µM) 28.8% | viability, T/C (second compound 10 µM, first compound 0.03 µM) 16.4% | viability, T/C (second compound 10 µM, first compound 0.0949 µM) 12.6% | viability, T/C (second compound 10 µM, first compound 0.3 µM) 13.4% | viability, T/C (second compound 10 µM, first compound 0.949 µM) 13% | viability, T/C (second compound 10 µM, first compound 3 µM) 16.8%
< 9.49 nM: IC50 (second compound 0.0316 µM) | IC50 (second compound 0.1 µM) | IC50 (second compound 0.316 µM) | IC50 (second compound 1 µM) | IC50 (second compound 3.16 µM) | IC50 (second compound 10 µM)

O=c1[nH]cc(F)c(=O)[nH]1 + Nc1ccc(C#CCN(C(=O)Cc2ncc(C(F)(F)F)cc2C(F)(F)F)c2ccc(F)cc2)nn1
inactive: viability, T/C [1] 101% | viability, T/C [2] 113% | viability, T/C [3] 93.8% | viability, T/C [4] 91.9% | viability, T/C [5] 68.7% | viability, T/C [6] 54.7% | viability, T/C [7] 117% | viability, T/C [8] 112% | viability, T/C [9] 101% | viability, T/C [10] 108% | viability, T/C [11] 64.9% | viability, T/C [12] 54.4% | viability, T/C [13] 103% | viability, T/C [14] 105% | viability, T/C [15] 119% | viability, T/C [16] 76.5% | viability, T/C [17] 66.5% | viability, T/C [18] 54.9% | viability, T/C [19] 107% | viability, T/C [20] 93.8% | viability, T/C [21] 96.4% | viability, T/C [22] 90.8% | viability, T/C [23] 61.3% | viability, T/C [24] 56.4% | viability, T/C [25] 102% | viability, T/C [26] 99% | viability, T/C [27] 103% | viability, T/C [28] 89% | viability, T/C [29] 65.1% | viability, T/C [30] 53.3% | viability, T/C [31] 101% | viability, T/C [32] 110% | viability, T/C [33] 95.5% | viability, T/C [34] 94.7% | viability, T/C [35] 68.9% | viability, T/C [36] 54.5%
> 10000 nM: IC50 (second compound 0.0316 µM) | IC50 (second compound 0.1 µM) | IC50 (second compound 0.316 µM) | IC50 (second compound 1 µM) | IC50 (second compound 3.16 µM) | IC50 (second compound 10 µM)
